Converted amounts (≈) assume the structure as drawn. Each block holds one compound with its values, some of them ahead of it.
Tests used:
[1] = Pharmacokinetic assay in mice; format: in vivo, male ICR mice
Description: Pharmacokinetic assay in mice was performed, wherein the mice used were male ICR mice weighing 20-25 g and fasted overnight. 3 mice were taken and given the compound by oral intragastric administration at 10 mg/kg, and blood was collected before administration and at 15 min, 30 min, 1 h, 2 h, 4 h, 8 h, and 24 h after administration. The blood samples were centrifuged at 6800 g at 2-8° C. for 6 min, and plasma was collected and stored at −80° C. […] The mixture was vortexed for 1 min and then centrifuged at 13000 rpm at 4° C. for 10 min. The supernatant was taken, and 3 times its amount of water was added for mixing. A proper amount of the resulting mixture was taken for LC-MS/MS analysis. The major pharmacokinetic parameters were analyzed using a non-compartmental model in the WinNonlin 7.0 software.

[2] = tested on: citric acid/histamine-stimulated cough model; assay: Cough efficacy assay of histamine/citric acid in guinea pigs; format: in vivo
Description: (§1) Before enrollment, the animals were acclimatized for 3-7 days. Once their body weight reached the standard (300-400 g), they were numbered and randomly grouped. 0.25-24 h before the start of the cough assessment, the compound or excipient was administered to the guinea pigs via intranasal instillation. The dose range for the administration of the test substance was 0.17-1.5 mg/kg. During the cough assessment, after the animals were acclimated in a whole-body plethysmography box, they were given histamine nebulization, followed by citric acid nebulization. The number of coughs and the cough latency of the animals were recorded within 22 min from the start of the histamine nebulization until the end of the observation period. For the statistics of experimental data, the one-way ANOVA method was used to analyze and compare the data of the groups. Statistical analysis results with p<0.05 were considered to indicate significant differences. Pairwise comparisons were performed using the t-test method to assess differences.

[3] = tested on: taste of SD rats; assay: Taste assay in rats (water vs. aqueous quinine intake); format: in vivo; settings: 30 mg/kg, i.p., 0.3 mM aqueous quinine, 15 min intake half an hour after administration
Description: After 3 days of overnight water-deprivation training, SD rats were subjected to administration with the compound. Half an hour after administration, each animal was given one bottle of water and one bottle of 0.3 mM aqueous quinine solution. The water bottles were removed after 15 min, and the intake of water and the intake of 0.3 mM aqueous quinine solution by the rats were measured separately. The effect of the compound on the taste of SD rats was assessed based on the difference between the water intake and the aqueous quinine solution intake (FIG. 41).

[4] = tested on: citric acid/ATP-stimulated cough model; assay: Cough efficacy assay of ATP/citric acid in guinea pigs; format: in vivo
Description: as §1, with “ATP” for “histamine”, “and after a few minutes, they were given” for “followed by”, “15” for “22”, “citric acid nebulization. The” for “histamine nebulization until the end of the observation period. For the statistics of experimental data, the”

[5] = Hygroscopicity by dynamic vapor sorption (DVS); format: physicochemical
Description: Dynamic vapor sorption (DVS) curves were acquired on a DVS IntrInsic from Surface Measurement Systems (SMS). The relative humidity at 25° C. was corrected with the deliquescence points of LiCl, Mg(NO3)2, and KCl.
Starting at 0% RH, the test acquired the percentage changes in mass of the samples when the humidity changed (0% RH to 95% RH to 0% RH) at a constant temperature of 25° C.

[6] = Competitive suspension tests of free base crystalline forms A/B; format: physicochemical; settings: room temperature and 50° C.
Description: In order to confirm the thermodynamic transformation relationship between the anhydrous free base crystalline forms A and B under different temperature conditions, competitive suspension tests in n-heptane and toluene at room temperature and 50° C. were set up.

[7] = Dynamic solubility experiment at 37° C.; format: physicochemical
Description: In the test, the purity, dynamic solubility and stability were tested using an Agilent 1260 high-performance liquid chromatograph, the molar ratio of salt-forming ions was tested using ion chromatography, and the analytical conditions are shown in Tables A-4 and A-5 below.
Solids at a feeding concentration of 10 mg/mL (calculated based on free base) were rotationally mixed with corresponding vehicles at 37° C. […] After sampling at each time point, the samples were centrifuged (at 10000 rpm) and filtered (through a 0.45 μm PTFE filter head). The HPLC concentrations and pH values of the filtrates were determined.
100.2 mg of NaCl and 50.3 mg of Triton X-100 were weighed into a 50 mL volumetric flask and then completely dissolved by addition of purified water. 816 μL of 1 M hydrochloric acid was added, and the pH was adjusted to 1.8 with 1 M hydrochloric acid or 1 M NaOH solution. The mixed solution was brought to the volume by addition of purified water.
170.5 mg of anhydrous NaH2PO4, 22.2 mg of NaOH, and 310.9 mg of NaCl were weighed into a 50 mL volumetric flask and then completely dissolved by addition of purified water. The pH was adjusted to 6.5 with 1 M hydrochloric acid or 1 M NaOH solution. The mixed solution was brought to the volume by addition of purified water. Subsequently, 55.1 mg of SIF powder was weighed into a 25 mL volumetric flask and completely dissolved with the above solution, and the mixed solution was brought to the volume.
0.21 mL of glacial acetic acid, 101.6 mg of NaOH, and 295.4 mg of NaCl were added into a 25 mL volumetric flask and then completely dissolved by addition of about 20 mL of purified water. The pH was adjusted to 5.0 with 1 M hydrochloric acid or 1 M NaOH solution. The mixed solution was brought to the volume by addition of purified water, and then 280.8 mg of SIF powder was weighed into the flask and completely dissolved.

[8] = Solid state stability (XRPD and HPLC); format: physicochemical
Description: In the test, the purity, dynamic solubility and stability were tested using an Agilent 1260 high-performance liquid chromatograph, the molar ratio of salt-forming ions was tested using ion chromatography, and the analytical conditions are shown in Tables A-4 and A-5 below. [table]

[9] = male, ICR, mouse, plasma, mice, oral intragastric administration, 10 mg/kg
[10] = citric acid/histamine-stimulated cough model
[11] = histamine/citric acid nebulization, intranasal instillation
[12] = ATP/citric acid nebulization, intranasal instillation
[13] = citric acid/ATP-stimulated cough model
[14] = 25° C./60% RH/uncovered, 1 month
[15] = 25° C./60% RH/uncovered, 1 week
[16] = 40° C./75% RH/uncovered, 1 month
[17] = 40° C./75% RH/uncovered, 1 week

AUC(0-t) [1, 9]: 15000 ng·h/mL
Cmax [1, 9]: 3380 ng/mL
Tmax [1, 9]: 0.5 h
half-life ([1]; male, ICR, mouse, plasma, mice, oral intragastric administration, 10 mg/kg, read-out: T½ (converted)): 2.89 h
Water/aqueous quinine solution intake ratio [3]: 29.4
Structure (SMILES): Cc1cnc(-c2cc(O[C@@H](C)[C@@H](C)O)cc(C(=O)N[C@H](C)c3cnc(C(F)(F)F)nc3)c2F)s1 [Compound of formula I, 2-fluoro-5-(((2S,3R)-3-hydroxybutan-2-yl)oxy)-3-(5-methylthiazol-2-yl)-N—((R)-1-(2-(trifluoromethyl)pyrimidin-5-yl)ethyl)benzamide]
pharmacokinetic properties compared to the control compounds 1 and 2 ([1]; mouse model): certain improvements in their pharmacokinetic properties
cough latency [2, 10]: prolonged the cough latency
number of coughs compared to control compound 1 [2, 10]: significantly reduced the number of coughs
Cough inhibition rate vs. vehicle (%) [2, 11]: 66.5%
Mean number of coughs within 15 min [2, 11]: 8.9
Cough inhibition rate vs. vehicle (%) [4, 12]: 68.2%
Mean number of coughs within 15 min [4, 12]: 6.3
cough latency [4, 13]: prolonged the cough latency
number of coughs compared to control compound 1 [4, 13]: significantly reduced the number of coughs

crystalline form after DVS test ([5]; 0% RH to 95% RH to 0% RH, 25° C.): remained unchanged
vapor sorption ([5]; 25° C./80% RH): about 0.91%
hygroscopicity ([5]; DVS, 25° C./80% RH): slight hygroscopicity
solubility at 4 h ([7]; FaSSIF, 37 °C, pH 6.5, fassif, thermodynamic from solid, FaSSIF, 4 h, read-out: S: solubility): 8 µg/mL (≈ 16 µM)
Crystalline form change ([7]; FaSSIF, 1 h): No
S: solubility ([7]; FaSSIF, 1 h): 10 µg/mL
pH of filtrate ([7]; FaSSIF, 1 h): 6.5
Crystalline form change ([7]; FaSSIF, 4 h): No
pH of filtrate ([7]; FaSSIF, 4 h): 6.5
Crystalline form change ([7]; FaSSIF, 24 h): No
S: solubility ([7]; FaSSIF, 24 h): 9 µg/mL
pH of filtrate ([7]; FaSSIF, 24 h): 6.5
solubility at 24 h ([7]; FeSSIF, 37 °C, pH 5, fessif, thermodynamic from solid, FeSSIF, 24 h, read-out: S: solubility): 25 µg/mL (≈ 50.2 µM)
Crystalline form change ([7]; FeSSIF, 1 h): No
S: solubility ([7]; FeSSIF, 1 h): 23 µg/mL
pH of filtrate ([7]; FeSSIF, 1 h): 5.0
Crystalline form change ([7]; FeSSIF, 4 h): No
S: solubility ([7]; FeSSIF, 4 h): 23 µg/mL
pH of filtrate ([7]; FeSSIF, 4 h): 5.0
Crystalline form change ([7]; FeSSIF, 24 h): No
pH of filtrate ([7]; FeSSIF, 24 h): 5.0
Crystalline form change ([7]; H2O, 1 h): No
S: solubility ([7]; H2O, 1 h): 3 µg/mL
pH of filtrate ([7]; H2O, 1 h): 8.8
Crystalline form change ([7]; H2O, 4 h): No
S: solubility ([7]; H2O, 4 h): 3 µg/mL
pH of filtrate ([7]; H2O, 4 h): 8.9
Crystalline form change ([7]; H2O, 24 h): No
S: solubility ([7]; H2O, 24 h): 3 µg/mL
pH of filtrate ([7]; H2O, 24 h): 9.0
Crystalline form change ([7]; SGF, 1 h): No
S: solubility ([7]; SGF, 1 h): 13 µg/mL
pH of filtrate ([7]; SGF, 1 h): 1.8
Crystalline form change ([7]; SGF, 4 h): No
S: solubility ([7]; SGF, 4 h): 13 µg/mL
pH of filtrate ([7]; SGF, 4 h): 1.8
Crystalline form change ([7]; SGF, 24 h): No
S: solubility ([7]; SGF, 24 h): 12 µg/mL
pH of filtrate ([7]; SGF, 24 h): 1.8
HPLC Purity (area %) [8, 14]: 99.33 area %
HPLC purity Relative to starting (%) [8, 14]: 99.96%
HPLC Purity (area %) [8, 15]: 99.38 area %
HPLC purity Relative to starting (%) [8, 15]: 100.01%
HPLC Purity (area %) [8, 16]: 99.43 area %
HPLC purity Relative to starting (%) [8, 16]: 100.06%
HPLC Purity (area %) [8, 17]: 99.51 area %
HPLC purity Relative to starting (%) [8, 17]: 100.14%
change of HPLC purity after placement under the corresponding conditions ([8]; 60° C. sealed 1 day, 25° C./60% RH and 40° C./75% RH uncovered 1 week/1 month): no significant change
HPLC Purity (area %) ([8]; 60° C./sealed, 1 day): 99.44 area %
HPLC purity Relative to starting (%) ([8]; 60° C./sealed, 1 day): 100.07%
HPLC Purity (area %) ([8]; Starting): 99.37 area %
Structure (SMILES): Cc1cnc(-c2cc(O[C@@H](C)[C@@H](C)O)cc(C(=O)N[C@H](C)c3cnc(C(F)(F)F)nc3)c2F)s1 [Free base crystalline form A, 2-fluoro-5-(((2S,3R)-3-hydroxybutan-2-yl)oxy)-3-(5-methylthiazol-2-yl)-N—((R)-1-(2-(trifluoromethyl)pyrimidin-5-yl)ethyl)benzamide]
thermodynamic stability of the crystalline form [6]: thermodynamically stable crystalline form
crystalline form changes in the dynamic solubility tests ([7]; H2O, SGF, FaSSIF, FeSSIF): did not undergo any crystalline form changes

Reference: US20250214986A1, “P2X3 INHIBITOR COMPOUND, SALT THEREOF, POLYMORPH THEREOF AND USE THEREOF” (HUMANWELL HEATHCARE (GROUP) CO., LTD., priority 2022, published 2025)
